Test [1] addresses T1, Gastrin/cholecystokinin type B receptor (Rattus norvegicus, UniProt P30553).
T1 sequence (P30553 whole entry): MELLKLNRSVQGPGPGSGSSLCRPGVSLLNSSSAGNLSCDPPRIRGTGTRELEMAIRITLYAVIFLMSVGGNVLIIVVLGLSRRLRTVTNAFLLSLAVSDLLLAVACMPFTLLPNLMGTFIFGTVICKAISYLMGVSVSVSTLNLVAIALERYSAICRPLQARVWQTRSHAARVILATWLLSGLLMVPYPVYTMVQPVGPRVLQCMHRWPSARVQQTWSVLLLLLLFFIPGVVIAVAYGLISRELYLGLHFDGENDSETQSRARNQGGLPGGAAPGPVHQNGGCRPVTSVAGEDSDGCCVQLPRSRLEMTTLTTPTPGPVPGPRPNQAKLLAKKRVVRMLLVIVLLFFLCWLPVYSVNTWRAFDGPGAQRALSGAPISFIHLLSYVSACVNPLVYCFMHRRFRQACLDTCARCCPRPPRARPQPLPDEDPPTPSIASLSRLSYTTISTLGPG
The experiment in a line: Tested for displacement of [125I]-CCK-8 from Gastrin/Cholecystokinin type B receptor in rat brain. In kind it is tissue-based.

The target in test [2] is T2, Cholecystokinin receptor type A (Rattus norvegicus, UniProt P30551).
T2 sequence (P30551 whole entry): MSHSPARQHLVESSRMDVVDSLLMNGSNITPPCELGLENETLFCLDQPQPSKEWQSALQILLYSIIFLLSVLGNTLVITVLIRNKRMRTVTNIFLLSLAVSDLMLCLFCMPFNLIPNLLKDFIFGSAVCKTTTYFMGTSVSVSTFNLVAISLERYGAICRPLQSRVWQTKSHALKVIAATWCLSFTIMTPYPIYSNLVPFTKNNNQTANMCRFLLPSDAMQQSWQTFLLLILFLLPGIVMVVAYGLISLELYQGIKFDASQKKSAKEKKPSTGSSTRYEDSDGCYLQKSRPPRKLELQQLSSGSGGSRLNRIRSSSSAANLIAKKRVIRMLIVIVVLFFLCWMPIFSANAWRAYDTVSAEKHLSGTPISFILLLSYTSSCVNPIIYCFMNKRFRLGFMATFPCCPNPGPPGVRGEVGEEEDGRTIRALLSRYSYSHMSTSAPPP
Kind of test: Tested for displacement of [3H]-L-364,718 from Cholecystokinin type A receptor in rat pancreas.

The record followed here is ChEMBL document CHEMBL1129707, “Identification and biological activity of novel peptidomimetic gastrin/CCK-B receptor agonists” (Bioorg Med Chem Lett, 1996).

Each structure is given as a SMILES string.

With `CCCC[C@H](NC(=O)Cc1c[nH]c2ccccc12)C(=O)N(CC(=O)N1CCC[C@H]1C(=O)O)CC1CCCCC1`, the results for the IC50 in test [1] and in test [2] were 30.2 nM and greater than 10000 nM, respectively.

For `CCCC[C@H](NC(=O)Cc1c[nH]c2ccccc12)C(=O)N(CCc1ccccc1)CC(=O)O`, the IC50 in test [1] stood at 165 nM.

On to `O=C(Cc1c[nH]c2ccccc12)N[C@@H](Cc1ccccc1)C(=O)N(CCC1CCCCC1)CC(=O)N1CCC[C@H]1C(=O)O`, for which the figures for the IC50 in test [1] and in test [2] were 0.94 nM and greater than 10000 nM, respectively.

`CCCC[C@H](NC(=O)Cc1c[nH]c2ccccc12)C(=O)N(CCc1ccccc1)CC(=O)N1CCC[C@H]1C(=O)O`: the IC50 in test [1] is 34 nM.

Consider `CCCC[C@H](NC(=O)Cc1c[nH]c2ccccc12)C(=O)N(CCC1CCCCC1)CC(=O)N1CCCC1`, for which the results for the IC50 in test [1] and in test [2] were 146 nM and greater than 10000 nM, respectively.

With `CCCC[C@H](NC(=O)Cc1c[nH]c2ccccc12)C(=O)N(CCc1ccccc1)CC(=O)N1CCCC1C(=O)O` (stereo partly specified), the IC50 in test [1] stood at 300 nM.

For `CCCC[C@H](NC(=O)Cc1c[nH]c2ccccc12)C(=O)N(CCC1CCCCC1)CC(=O)O`, the IC50 in test [1] is 370 nM; in test [2], greater than 10000 nM.

`CCC[C@@H]1CCN(C(=O)[C@@H]2Cc3c[nH]c4cccc(c34)CC(=O)N2)[C@@H]1C(=O)N[C@@H](CC(=O)O)C(=O)N[C@@H](Cc1ccccc1)C(N)=O` came in with an IC50 in test [1] of 0.7 nM.

In test [1], `CC(C)C[C@@H](C(=O)N[C@@H](CC(=O)O)C(=O)N[C@@H](Cc1ccccc1)C(N)=O)N1CC(=O)N[C@H](Cc2c[nH]c3ccccc23)C1=O` gave an IC50 of 37.7 nM.

Regarding `CC(C)(C)OC(=O)N1c2ccccc2C[C@@H]1C(=O)N1[C@@H](C(=O)N2Cc3ccccc3C[C@@H]2C(=O)N2CCC[C@@H]2C(=O)O)CC[C@H]1c1ccccc1`, the results for the IC50 in test [1] and in test [2] were 36 nM and greater than 10000 nM, respectively.

For `CC(C)(C)OC(=O)N1c2ccccc2C[C@@H]1C(=O)N1[C@@H](C(=O)N2Cc3ccccc3C[C@@H]2C(=O)NCC(=O)O)CC[C@H]1c1ccccc1`, the IC50 in test [1] was 27 nM; in test [2] it was greater than 10000 nM.

Regarding `CCCC[C@H](NC(=O)Cc1c[nH]c2ccccc12)C(=O)N(CCC1CCCCC1)CC(=O)N1CCC[C@H]1C(=O)O`, the results for the IC50 in test [1] and in test [2] were 2.3 nM and greater than 10000 nM, respectively.

Turning to `CC(C)(C)OC(=O)N1c2ccccc2C[C@@H]1C(=O)N1[C@@H](C(=O)N2CCc3ccccc3C2)CC[C@H]1c1ccccc1`, the IC50 was 52 nM in test [1] and greater than 10000 nM in test [2].

With `CC(C)(C)OC(=O)N1c2ccccc2C[C@@H]1C(=O)N1[C@@H](C(=O)N2Cc3ccccc3C[C@@H]2CC(=O)O)CC[C@H]1c1ccccc1`, the IC50 was 35 nM in test [1] and greater than 10000 nM in test [2].

Regarding `CC(C)(C)OC(=O)N1c2ccccc2C[C@@H]1C(=O)N1[C@@H](C(=O)N2Cc3ccccc3C[C@@H]2C(=O)N2CCCC2C(=O)O)CC[C@H]1c1ccccc1` (stereo partly specified), the IC50 in test [1] is 0.25 nM; in test [2], greater than 10000 nM.

Consider `CC(C)(C)OC(=O)N1c2ccccc2C[C@@H]1C(=O)N1[C@@H](C(=O)N2Cc3ccccc3C[C@@H]2C(N)=O)CC[C@H]1c1ccccc1`, for which the 50% inhibitory concentration (IC50) in test [1] was 170 nM; in test [2] it was greater than 10000 nM.

Turning to `CC(C)(C)OC(=O)N1c2ccccc2C[C@@H]1C(=O)N1[C@@H](C(=O)N2Cc3ccccc3C[C@@H]2C(=O)O)CC[C@H]1c1ccccc1`, the IC50 was 39 nM in test [1] and greater than 10000 nM in test [2].

As for `O=C(Cc1c[nH]c2ccccc12)N[C@@H](CCc1ccccc1)C(=O)N(CCC1CCCCC1)CC(=O)N1CCC[C@H]1C(=O)O`, the IC50 in test [1] is 17 nM; in test [2], greater than 10000 nM.
